“Also recorded” adds a separate entry of the source. Read-outs that look alike come from different tables or passages of the source.

The test system of one series is sheep lungs. It is filed as in vivo. The method, then:
Polylysine was delivered to 12 pulmonary subsegments via a bronchoscope in a fibrin gel matrix at 100 mg, 30 mg and 10 mg per subsegment (groups 1, 2 and 3 in FIG. 1). The molecular weight of the polylysine used was 20,000-80,000 Da with an average molecular weight of 55,000 Da. A total of 10 sheep were thus treated.
The characteristic lesion caused by polylysine is renal infarction, consistent with what has been reported in the literature for polycationic injury. In the animals tested with baseline normal renal function, renal damage resulting from cationic injury remains subclinical. […] Thus, these clinical pathology tests were not sufficiently sensitive to detect polycationic renal injury resulting from polylysine. Polycationic renal toxicity following pulmonary treatment is initiated and can be detected only at necropsy within days of treatment. […] The characteristic acute lesion appeared to be renal infarction with associated hemorrhage. Lesions occurred within days (3-7 days) of cationic exposure. Necropsy findings are the most sensitive markers of toxicity.
4 sheep were treated at 12 pulmonary subsegments each with a fibrin gel containing 100 mg chondroitin sulfate (Group 5 in FIG. 1). 2 animals were sacrificed at 8 days and the remaining 2 animals were sacrificed at 4 weeks. […] However, pulmonary responses in these animals were minimal, indicating poor efficacy.
In a series of 4 sheep experiments (Group 6 in FIG. 1), in-situ precipitation of chondroitin sulfate and polylysine solutions was achieved as they exit a dual lumen catheter. Chondroitin sulfate was added to a fibrinogen solution to a final concentration of 20 mg/mL, while polylysine was added to a thrombin solution to a final concentration of 20 mg/mL. Both solutions were 5 mL and were injected through a dual lumen catheter into subsegments of sheep lungs for a total of 10 mL per subsegment.
In a total of 4 sheep (Group 7 in FIG. 1), use of systemic heparin to complex polylysine in the circulation and reduce or prevent renal toxicity was attempted.
Using this precipitation methodology, polylysine related renal toxicity was prevented over a broad polylysine concentration range from 1 mg/mL to 10 mg/mL at chondroitin sulfate concentration of 1 to 5 mg/mL (Groups 9 to 13 in FIG. 1).
Lung volume reduction treatment was performed in 8 consecutive animals at 84 subseguential sites using a formulation containing 13 mg/mL of human fibrinogen, 5 mg/mL of sodium chondroitin sulfate, 5 mg/mL of poly-L-lysine, and polymerized in situ with 1000 U activated human thrombin (Group 13 in FIG. 1).

The next series deals with rats. The series is described as follows: Lung volume reduction in rats, fibrin gel, lungs and kidneys evaluated after 1 week. The conditions noted are these: 200 U/mL thrombin. The class given is in vivo. The method, then:
(§1) Three rats were treated with 5 mg/mL poly(Lys, Glu) to evaluate whether the copolymer could be used to modulate local and/or systemic toxicity. Treatments contained 28.6 mg/mL fibrinogen polymerized with 200 U/mL thrombin. All rats were anesthetized and intubated orotracheally. A dual lumen catheter was placed into a target site in the lung with bronchoscopic guidance. The reagents were injected into the lung and the catheter was removed. Each animal was allowed to recover from anesthesia, and returned to its cage. After 1 week, all animals were euthanized. The extent of pleural scarring was assessed prior to lung removal from the chest cavity. The lungs were then removed en bloc, fully inflated, and evaluated visually to assess the extent of local parenchymal inflammation and scarring produced by treatment. The kidneys were also harvested and evaluated for the presence of cortical lesions and infarctions which can develop as a consequence of systemic toxicity following polycation adminstration.
as §1, with “4” for “Three”, “2.5” for “5”, “polyomithine and 3 were treated with 2.5 mg/mL polyomithine precipitated with 2.5 mg/mL chondroitin sulfate” for “poly(Lys, Glu)”, “precipitation” for “the copolymer”, “administration.” for “adminstration.”

[1] abbreviates: 100 mg/treatment in fibrin gel, 12 pulmonary subsegments (group 1).
Setting [2] is: 10 and 30 mg/treatment in fibrin gel (groups 2 and 3).
[3] abbreviates: 5 mg/mL poly(Lys, Glu) in 28.6 mg/mL fibrinogen.
Where [4] appears, read: 2.5 mg/mL polyornithine in 28.6 mg/mL fibrinogen.

Take poly-L-lysine [polylysine]: in the series on sheep lungs (setting [1]), the lung injury result was “severe lung injury”; the renal toxicity result is “renal toxicity manifest as nephropathy and infarction”. In the series on sheep lungs (setting [2]), the pulmonary responses entry is listed as “acceptable pulmonary responses” and the renal toxicity result is on record as “associated with renal toxicity”. Also, in the series with sheep lungs (animals with renal lesions at necropsy), the “serum BUN or creatinine, urine analysis, urine protein-to-creatinine ratio” value is given as “No abnormalities”. Also, the “time of occurrence of renal lesions after cationic exposure” value in the series on sheep lungs (renal infarction with associated hemorrhage) was in the range of 3 to 7 days.

Take poly(Lys, Glu) [copolymer]: in the series on rats (setting [3]), the “local pulmonary lesions / efficacy as lung volume reduction agent” value was “no significant local pulmonary lesions; also recorded: failed to demonstrate efficacy” and the “systemic toxicity, manifest as renal lesions” value is listed as “no incidence of systemic toxicity; also recorded: did not show any systemic toxicity”.

Turning to heparin, in the series with sheep lungs (systemic heparin to complex polylysine in the circulation, 4 sheep (Group 7)), the “prevention of polylysine renal lesions” value is listed as “did not prevent renal lesions”.

Regarding chondroitin sulfate, the pulmonary responses entry with sheep lungs (fibrin gel containing 100 mg chondroitin sulfate, 12 subsegments (Group 5)) was “minimal”.

Turning to polyornithine, in the series with rats (setting [4]), the local toxicity entry is listed as “significant local toxicity” and the systemic toxicity result is given as “systemic toxicity, manifest as renal lesions”.

For the origin of these results see patent publication US20070110813A1, “Polycation-polyanion complexes, compositions and methods of use thereof” (priority 2005, published 2007).
